The record followed here is US11028079B2 (ConverGene LLC, priority 2015, dated 2021).

The assay addresses T1, BRD4 bromodomains (Homo sapiens, UniProt O60885).
T1 construct: fused on or other part: T7 phage capsid protein (phage-display fusion; the phage DNA is read out by qPCR)
The assay is described as follows: BROMOscan bromodomain competition binding assay (DiscoveRx). The following applies: Kd from 11 compound concentrations ranging from 0 to 10 μM, read-out: BROMOscan Relative Activity. The protocol: Bromodomain assays were conducted to measure interactions between certain compounds and bromodomains.
The assays were conducted according to BROMOscan protocol from Discover Rx. Briefly, BRD4 bromodomains expressed as a fusion capsid protein of T7 phage were bound to acetylated peptide ligand on a solid phase and competition bindings were performed. T7 phage strains displaying bromodomains were grown in parallel in 24-well blocks in an E. coli host derived from the BL21 strain. E. coli were grown to log-phase and infected with T7 phage from a frozen stock (multiplicity of infection=0.4) and incubated with shaking at 32° C. until lysis (90-150 minutes). The lysates were centrifuged (5,000×g) and filtered (0.2 μm) to remove cell debris. […] The liganded beads were blocked with excess biotin and washed with blocking buffer (SeaBlock (Pierce), 1% BSA, 0.05% Tween 20, 1 mM DTT) to remove unbound ligand and to reduce non-specific phage binding. […] Test compounds were prepared as 1000× stocks in 100% DMSO and subsequently diluted 1:10 in monoethylene glycol (MEG) to create stocks at 100× the screening concentration (resulting stock solution is 10% DMSO/90% MEG). The compounds were then diluted directly into the assays such that the final concentration of DMSO and MEG were 0.1% and 0.9%, respectively. All reactions were performed in polystyrene 96-well plates in a final volume of 0.135 ml. […] The bromodomain concentration in the eluates was measured by qPCR. Data was collected at 11 compound concentrations ranging from 0 to 10 μM. Kd values were then derived from a standard dose-response curve generated with Hill equation (Hill Slope was set to ˜1) and a non-linear least square fit with the Levenberg-Marquardt algorithm. Response=Background+Signal−Background/1+(Kd Hill Slope/Dose Hill Slope)
Consider `Cc1noc(C)c1-c1ccc2nc(Cl)nc(NCc3cccc(Cl)c3)c2c1` [Example 1, 2-chloro-N-(3-chlorobenzyl)-6-(3,5-dimethylisoxazol-4-yl)quinazolin-4-amine], for which the Kd lay in the range of 500 to 5000 nM. As to `Cc1noc(C)c1-c1ccc2ncnc(NCc3cccc(Cl)c3)c2c1` [Example 2, N-(3-chlorobenzyl)-6-(3,5-dimethylisoxazol-4-yl)quinazolin-4-amine], the Kd was < 500 nM. Turning to `Cc1noc(C)c1-c1ccc2nccc(NCc3cccc(Cl)c3)c2c1` [Example 3, N-(3-chlorobenzyl)-6-(3,5-dimethylisoxazol-4-yl)quinolin-4-amine], the Kd lay in the range of 500 to 5000 nM. To `Cc1cc(NCc2cccc(Cl)c2)c2cc(-c3c(C)noc3C)ccc2n1` [Example 4, N-(3-chlorobenzyl)-6-(3,5-dimethylisoxazol-4-yl)-2-methylquinolin-4-amine] belongs 500 to 5000 nM; to `CNc1nc(NCc2cccc(Cl)c2)c2cc(-c3c(C)noc3C)ccc2n1` [Example 5, N4-(3-chlorobenzyl)-6-(3,5-dimethylisoxazol-4-yl)-N2-methylquinazoline-2,4-diamine], 500 to 5000 nM; to `Cc1noc(C)c1-c1ccc2nc(N3CCN(C)CC3)nc(NCc3cccc(Cl)c3)c2c1` [Example 6, N-(3-chlorobenzyl)-6-(3,5-dimethylisoxazol-4-yl)-2-(4-methylpiperazin-1-yl)quinazolin-4-amine], < 500 nM. To `Cc1noc(C)c1-c1ccc2nc(NC3CCN(C)CC3)nc(NCc3cccc(Cl)c3)c2c1` [Example 7, N4-(3-chlorobenzyl)-6-(3,5-dimethylisoxazol-4-yl)-N2-(1-methylpiperidin-4-yl)quinazoline-2,4-diamine] belongs < 500 nM; to `COc1nc(NCc2cccc(Cl)c2)c2cc(-c3c(C)noc3C)ccc2n1` [Example 8, N-(3-chlorobenzyl)-6-(3,5-dimethylisoxazol-4-yl)-2-methoxyquinazolin-4-amine], < 500 nM. To `Cc1nc(NCc2cccc(Cl)c2)c2cc(-c3c(C)noc3C)ccc2n1` [Example 9, N-(3-chlorobenzyl)-6-(3,5-dimethylisoxazol-4-yl)-2-methylquinazolin-4-amine] belongs < 500 nM. Turning to `Cc1noc(C)c1-c1ccc2nc(NCCN3CCOCC3)nc(NCc3cccc(Cl)c3)c2c1` [Example 10, N4-(3-chlorobenzyl)-6-(3,5-dimethylisoxazol-4-yl)-N2-(2-morpholinoethyl)quinazoline-2,4-diamine], the Kd is < 500 nM.

With `Cc1noc(C)c1-c1ccc2nc(NCCN3CCN(C)CC3)nc(NCc3cccc(Cl)c3)c2c1` [Example 11, N4-(3-chlorobenzyl)-6-(3,5-dimethylisoxazol-4-yl)-N2-(2-(4-methylpiperazin-1-yl)ethyl)quinazoline-2,4-diamine], the Kd was < 500 nM. Take `Cc1noc(C)c1-c1ccc2nc(N3CCN(CCN(C)C)CC3)nc(NCc3cccc(Cl)c3)c2c1` [Example 12, N-(3-chlorobenzyl)-2-(4-(2-(dimethylamino)ethyl)piperazin-1-yl)-6-(3,5-dimethylisoxazol-4-yl)quinazolin-4-amine]: the Kd was < 500 nM. `Cc1noc(C)c1-c1ccc2nc(NCCCO)nc(NCc3cccc(Cl)c3)c2c1` [Example 13, 3-((4-((3-chlorobenzyl)amino)-6-(3,5-dimethylisoxazol-4-yl)quinazolin-2-yl)amino)propan-1-ol]: the Kd is < 500 nM. To `Cc1noc(C)c1-c1ccc2nc(-c3c(C)noc3C)cc(NCc3cccc(Cl)c3)c2c1` [Example 14, N-(3-chlorobenzyl)-2,6-bis(3,5-dimethylisoxazol-4-yl)quinolin-4-amine] belongs 500 to 5000 nM; to `Cc1noc(C)c1-c1cc(NCc2cccc(Cl)c2)c2cc(Br)ccc2n1` [Example 15, 6-bromo-N-(3-chlorobenzyl)-2-(3,5-dimethylisoxazol-4-yl)quinolin-4-amine], > 5000 nM. `Cc1noc(C)c1-c1ccc2nc(N3CCN(CCCN(C)C)CC3)nc(NCc3cccc(Cl)c3)c2c1` [Example 16, N-(3-chlorobenzyl)-2-(4-(3-(dimethylamino)propyl)piperazin-1-yl)-6-(3,5-dimethylisoxazol-4-yl)quinazolin-4-amine]: the Kd is < 500 nM.

With `Cc1noc(C)c1-c1ccc2nc(N3CCN(C(=O)C4CC4)CC3)nc(NCc3cccc(Cl)c3)c2c1` [Example 17, (4-(4-((3-chlorobenzyl)amino)-6-(3,5-dimethylisoxazol-4-yl)quinazolin-2-yl)piperazin-1-yl)(cyclopropyl)methanone], the Kd was < 500 nM. To `Cc1noc(C)c1-c1ccc2nc(N3CCN(C(=O)c4cnn(C)c4)CC3)nc(NCc3cccc(Cl)c3)c2c1` [Example 18, (4-(4-((3-chlorobenzyl)amino)-6-(3,5-dimethylisoxazol-4-yl)quinazolin-2-yl)piperazin-1-yl)(1-methyl-1H-pyrazol-4-yl)methanone] belongs < 500 nM. In the case of `CN(C)CCN1CCN(c2nc(NCc3cccc(Cl)c3)c3cc(Br)ccc3n2)CC1` [Example 19, 6-bromo-N-(3-chlorobenzyl)-2-(4-(2-(dimethylamino)ethyl)piperazin-1-yl)quinazolin-4-amine] it was > 5000 nM; in that of `Cc1noc(C)c1-c1ccc2nc(N3CCN(CCO)CC3)nc(NCc3cccc(Cl)c3)c2c1` [Example 20, 2-(4-(4-((3-chlorobenzyl)amino)-6-(3,5-dimethylisoxazol-4-yl)quinazolin-2-yl)piperazin-1-yl)ethanol], < 500 nM.

Take `Cc1noc(C)c1-c1ccc2nc(N3CCN(CCC(C)C)CC3)nc(NCc3cccc(Cl)c3)c2c1` [Example 21, N-(3-chlorobenzyl)-6-(3,5-dimethylisoxazol-4-yl)-2-(4-isopentylpiperazin-1-yl)quinazolin-4-amine]: the Kd was in the range of 500 to 5000 nM.

On to `Cc1noc(C)c1-c1ccc2nc(N(C)CCN(C)C)nc(NCc3cccc(Cl)c3)c2c1` [Example 22, N4-(3-chlorobenzyl)-N2-(2-(dimethylamino)ethyl)-6-(3,5-dimethylisoxazol-4-yl)-N2-methylquinazoline-2,4-diamine], for which the Kd was < 500 nM.

On to `Cc1noc(C)c1-c1ccc2nc(N3CCC(CO)CC3)nc(NCc3cccc(Cl)c3)c2c1` [Example 23, (1-(4-((3-chlorobenzyl)amino)-6-(3,5-dimethylisoxazol-4-yl)quinazolin-2-yl)piperidin-4-yl)methanol], for which the Kd lay within 500 to 5000 nM. Turning to `Cc1noc(C)c1-c1ccc2nc(N3CCCC(CO)C3)nc(NCc3cccc(Cl)c3)c2c1` (stereo not shown) [Example 24, (1-(4-((3-chlorobenzyl)amino)-6-(3,5-dimethylisoxazol-4-yl)quinazolin-2-yl)piperidin-3-yl)methanol], the Kd is 500 to 5000 nM. To `Cc1noc(C)c1-c1ccc2nc(N3CCCCC3CO)nc(NCc3cccc(Cl)c3)c2c1` (stereo not shown) [Example 25, (1-(4-((3-chlorobenzyl)amino)-6-(3,5-dimethylisoxazol-4-yl)quinazolin-2-yl)piperidin-2-yl)methanol] belongs 500 to 5000 nM; to `Cc1noc(C)c1-c1ccc2nc(N3CCN(CCN(C)C)CC3)cc(NCc3cccc(Cl)c3)c2c1` [Example 26, N-(3-chlorobenzyl)-2-(4-(2-(dimethylamino)ethyl)piperazin-1-yl)-6-(3,5-dimethylisoxazol-4-yl)quinolin-4-amine], < 500 nM. In the case of `Cc1noc(C)c1-c1ccc2nc(NCc3cccc(Cl)c3)cc(N3CCN(CCN(C)C)CC3)c2c1` [Example 27, N-(3-chlorobenzyl)-4-(4-(2-(dimethylamino)ethyl)piperazin-1-yl)-6-(3,5-dimethylisoxazol-4-yl)quinolin-2-amine] it was 500 to 5000 nM. On to `Cc1noc(C)c1-c1ccc2nc(-c3cnn(CCN4CCOCC4)c3)nc(NCc3cccc(Cl)c3)c2c1` [Example 28, N-(3-chlorobenzyl)-6-(3,5-dimethylisoxazol-4-yl)-2-(1-(2-morpholinoethyl)-1H-pyrazol-4-yl)quinazolin-4-amine], for which the Kd was < 500 nM. As to `Cc1noc(C)c1-c1ccc2nc(N3CCN(C(=O)c4ccncc4)CC3)nc(NCc3cccc(Cl)c3)c2c1` [Example 29, (4-(4-((3-chlorobenzyl)amino)-6-(3,5-dimethylisoxazol-4-yl)quinazolin-2-yl)piperazin-1-yl)(pyridin-4-yl)methanone], the Kd is < 500 nM.

Take `Cc1noc(C)c1-c1ccc2nc(N3CCC(CCO)CC3)nc(NCc3cccc(Cl)c3)c2c1` [Example 30, 2-(1-(4-((3-chlorobenzyl)amino)-6-(3,5-dimethylisoxazol-4-yl)quinazolin-2-yl)piperidin-4-yl)ethanol]: the Kd lay within 500 to 5000 nM. In the case of `Cc1noc(C)c1-c1ccc2nc(C3=CCNCC3)nc(NCc3cccc(Cl)c3)c2c1` [Example 31, N-(3-chlorobenzyl)-6-(3,5-dimethylisoxazol-4-yl)-2-(1,2,3,6-tetrahydropyridin-4-yl)quinazolin-4-amine] it was < 500 nM.
